Measured values reported in the NIST ThermoML archive (doi:10.1016/j.fluid.2010.04.018).
± gives the expanded uncertainty stated by the source.

Test: xn = mol fraction of the nth substance listed
Conditions: Liquid, Vibrating tube method

**Q.** For `C1CCOC1` [tetrahydrofuran] + O=C=O, which mass density (298.15 K, x2 = 0.388) is on record?
**A.** 906.5 ± 0.2 kg/m3

**Q.** What about the mass density (298.15 K, x2 = 0.47) of the same compound?
**A.** 910.1 ± 0.2 kg/m3

**Q.** And the mass density (298.15 K, x2 = 0.588)?
**A.** 912.1 ± 0.2 kg/m3

**Q.** And the mass density (298.15 K, x2 = 0.703)?
**A.** 906.9 ± 0.3 kg/m3

**Q.** What about the mass density (298.15 K, x2 = 0.828) of the same compound?
**A.** 883.3 ± 0.3 kg/m3

**Q.** What about the mass density (298.15 K, x2 = 0.941) of the same compound?
**A.** 819.3 ± 1.5 kg/m3

**Q.** And the mass density (298.15 K, x2 = 0.983)?
**A.** 763.3 ± 0.5 kg/m3

**Q.** And the mass density (313.15 K, x2 = 0.301)?
**A.** 879.8 ± 0.2 kg/m3

**Q.** And the mass density (313.15 K, x2 = 0.428)?
**A.** 883.6 ± 0.2 kg/m3

**Q.** And the mass density (313.15 K, x2 = 0.542)?
**A.** 883 ± 0.2 kg/m3

**Q.** And the mass density (313.15 K, x2 = 0.665)?
**A.** 873.1 ± 0.4 kg/m3

**Q.** What about the mass density (313.15 K, x2 = 0.788) of the same compound?
**A.** 842.6 ± 0.8 kg/m3

**Q.** And the mass density (313.15 K, x2 = 0.881)?
**A.** 787.7 ± 1.6 kg/m3

**Q.** And the mass density (313.15 K, x2 = 0.921)?
**A.** 737.7 ± 3 kg/m3

**Q.** What about the mass density (313.15 K, x2 = 0.938) of the same compound?
**A.** 699.9 ± 4.5 kg/m3
